Assay [1] is described as follows: Trypanosoma cruzi growth suppression in host cells – NIH3T3 host cells, beta-gal luminescence, confirmation (AID 2044).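 Note: intracellular parasites grown in NIH/3T3 mouse fibroblasts as host cells; luminescent beta-galactosidase reporter signal from transgenic T. cruzi replicating inside host cells; inhibitors lower the luminescence signal.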 In kind it is functional, cell-based.
A short description of assay [2]: NIH3T3 cell viability loss – ATP luminescence, mouse fibroblasts, counter-screen, dose response (AID 2010).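 Note: cells exposed to compound for about 90 hours before reading.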 Type of assay: functional, cell-based. A general note: The purpose of a counterscreen is to sort out artefacts and off-target activity.
The next assay has as its target Estrogen receptor beta (Homo sapiens, UniProt Q92731).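 Note: recombinant ER-beta bound to coactivator SRC1 peptide in presence of estradiol agonist; inhibitors block coactivator peptide binding and lower the FRET signal.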
Assay [3] is described as follows: luciferase reporter signal suppression in cells – H4 neuroglioma cells, luminescence, dose response (AID 1990). Type of assay: functional, cell-based.
Assay [4] has as its target T1, RNA-binding protein pos-1 (Caenorhabditis elegans, UniProt G5EF15).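 Note: purified POS-1 fused to maltose binding protein made in E. coli; potency of compounds blocking POS-1 binding to fluorescent RNA.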
T1 sequence (G5EF15 whole entry): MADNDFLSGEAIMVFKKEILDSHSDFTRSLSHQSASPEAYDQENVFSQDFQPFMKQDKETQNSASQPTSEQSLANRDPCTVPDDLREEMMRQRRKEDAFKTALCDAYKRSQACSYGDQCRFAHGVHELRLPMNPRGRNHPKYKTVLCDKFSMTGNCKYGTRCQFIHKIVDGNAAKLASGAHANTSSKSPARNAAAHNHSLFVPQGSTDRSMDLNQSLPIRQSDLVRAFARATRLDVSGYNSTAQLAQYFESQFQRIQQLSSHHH
Description: disruptors of C. elegans POS-1 RNA interaction – biochemical, fluorescence polarization, dose response (AID 1964). (In general: In fluorescence polarisation assays a small probe gives low polarisation when free and higher when bound to something large.)

Assay [5] can be described thus: Luminescence Cell-Based Dose Response HTS to Identify Inhibitors of 5'UTR Stem-Loop Driven Prion Protein mRNA Translation in H4 Neuroglioblastoma Cells. [Related pubchem assays: 1827 (Project Summary), 1813 (Primary HTS)]. In kind it is functional.
Assay [6] addresses T2, Zinc finger protein mex-5 (Caenorhabditis elegans, UniProt Q9XUB2).
T2 sequence (Q9XUB2 whole entry): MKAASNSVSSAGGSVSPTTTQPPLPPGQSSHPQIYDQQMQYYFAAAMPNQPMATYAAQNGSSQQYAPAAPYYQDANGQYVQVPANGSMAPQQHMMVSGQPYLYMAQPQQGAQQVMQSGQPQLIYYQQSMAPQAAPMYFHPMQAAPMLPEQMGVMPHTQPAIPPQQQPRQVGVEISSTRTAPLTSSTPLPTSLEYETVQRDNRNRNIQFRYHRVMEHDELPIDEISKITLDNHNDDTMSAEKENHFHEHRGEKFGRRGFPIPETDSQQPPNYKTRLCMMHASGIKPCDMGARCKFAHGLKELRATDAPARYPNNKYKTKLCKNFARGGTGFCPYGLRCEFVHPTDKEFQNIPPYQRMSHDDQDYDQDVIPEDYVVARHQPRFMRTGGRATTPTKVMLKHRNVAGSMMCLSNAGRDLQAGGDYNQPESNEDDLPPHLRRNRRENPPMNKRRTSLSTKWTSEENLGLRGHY
Nature of the assay: potency of MEX-5 RNA-binding blockers – biochemical, C. elegans, fluorescence polarization, dose response (AID 1960).

The nature of assay [7]: alpha-synuclein stem-loop luciferase translation blockers – H4 neuroglioma cells, luminescence, confirmation (AID 1988). Type of assay: functional, cell-based.
The target of assay [8] is Induced myeloid leukemia cell differentiation protein Mcl-1 (Homo sapiens, UniProt Q07820). In kind it is functional.
For assay [9], the target named is T3, Mannose-6-phosphate isomerase (Homo sapiens, UniProt P34949).
T3 sequence (P34949 whole entry): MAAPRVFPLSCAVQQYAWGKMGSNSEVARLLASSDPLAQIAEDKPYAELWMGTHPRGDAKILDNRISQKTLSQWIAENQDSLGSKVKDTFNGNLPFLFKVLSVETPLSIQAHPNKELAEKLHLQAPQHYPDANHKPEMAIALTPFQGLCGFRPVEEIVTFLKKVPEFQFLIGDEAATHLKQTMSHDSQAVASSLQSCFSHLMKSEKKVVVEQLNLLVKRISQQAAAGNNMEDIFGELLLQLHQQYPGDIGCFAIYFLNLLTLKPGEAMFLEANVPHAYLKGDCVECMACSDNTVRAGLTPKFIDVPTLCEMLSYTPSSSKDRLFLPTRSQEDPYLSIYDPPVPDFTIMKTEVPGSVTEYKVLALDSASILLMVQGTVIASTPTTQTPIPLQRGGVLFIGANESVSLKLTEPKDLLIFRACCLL
Description: MPI inhibition at elevated mannose 6-phosphate – biochemical, fluorescence intensity, high mannose 6-phosphate, primary screen (AID 1220).

The target in assay [10] is T4, Replicative DNA helicase DnaB (Mycobacterium tuberculosis, UniProt P9WMR3).
T4 sequence (P9WMR3 whole entry): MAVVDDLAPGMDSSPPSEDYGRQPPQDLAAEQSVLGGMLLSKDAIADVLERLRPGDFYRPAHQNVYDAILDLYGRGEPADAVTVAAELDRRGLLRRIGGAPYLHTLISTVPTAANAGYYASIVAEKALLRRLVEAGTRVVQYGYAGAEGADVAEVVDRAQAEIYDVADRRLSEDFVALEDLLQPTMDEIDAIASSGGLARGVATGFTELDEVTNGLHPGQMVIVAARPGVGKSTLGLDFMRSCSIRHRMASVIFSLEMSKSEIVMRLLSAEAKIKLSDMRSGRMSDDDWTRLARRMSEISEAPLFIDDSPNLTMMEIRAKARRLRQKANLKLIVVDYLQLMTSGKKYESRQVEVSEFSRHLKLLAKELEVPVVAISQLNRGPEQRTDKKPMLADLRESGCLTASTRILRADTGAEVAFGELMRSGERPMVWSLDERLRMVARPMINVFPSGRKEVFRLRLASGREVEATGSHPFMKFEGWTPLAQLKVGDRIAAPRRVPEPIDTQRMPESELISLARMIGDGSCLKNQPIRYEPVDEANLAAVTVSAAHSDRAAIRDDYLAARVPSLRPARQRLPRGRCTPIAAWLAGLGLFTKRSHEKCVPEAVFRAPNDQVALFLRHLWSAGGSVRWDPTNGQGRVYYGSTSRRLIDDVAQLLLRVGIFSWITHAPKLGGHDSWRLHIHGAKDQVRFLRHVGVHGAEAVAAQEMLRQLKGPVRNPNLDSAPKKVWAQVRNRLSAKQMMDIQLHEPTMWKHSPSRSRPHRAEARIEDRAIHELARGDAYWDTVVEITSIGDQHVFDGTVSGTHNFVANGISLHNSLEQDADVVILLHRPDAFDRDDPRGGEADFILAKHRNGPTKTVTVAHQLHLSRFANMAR
Nature of the assay: DnaB intein splicing inhibitors, dose response, biochemical, cell-free fluorescence (AID 449749). In kind it is functional.

Another assay addresses T5, Protein RecA (Mycobacterium tuberculosis, UniProt P9WHJ3).
T5 sequence (P9WHJ3 whole entry): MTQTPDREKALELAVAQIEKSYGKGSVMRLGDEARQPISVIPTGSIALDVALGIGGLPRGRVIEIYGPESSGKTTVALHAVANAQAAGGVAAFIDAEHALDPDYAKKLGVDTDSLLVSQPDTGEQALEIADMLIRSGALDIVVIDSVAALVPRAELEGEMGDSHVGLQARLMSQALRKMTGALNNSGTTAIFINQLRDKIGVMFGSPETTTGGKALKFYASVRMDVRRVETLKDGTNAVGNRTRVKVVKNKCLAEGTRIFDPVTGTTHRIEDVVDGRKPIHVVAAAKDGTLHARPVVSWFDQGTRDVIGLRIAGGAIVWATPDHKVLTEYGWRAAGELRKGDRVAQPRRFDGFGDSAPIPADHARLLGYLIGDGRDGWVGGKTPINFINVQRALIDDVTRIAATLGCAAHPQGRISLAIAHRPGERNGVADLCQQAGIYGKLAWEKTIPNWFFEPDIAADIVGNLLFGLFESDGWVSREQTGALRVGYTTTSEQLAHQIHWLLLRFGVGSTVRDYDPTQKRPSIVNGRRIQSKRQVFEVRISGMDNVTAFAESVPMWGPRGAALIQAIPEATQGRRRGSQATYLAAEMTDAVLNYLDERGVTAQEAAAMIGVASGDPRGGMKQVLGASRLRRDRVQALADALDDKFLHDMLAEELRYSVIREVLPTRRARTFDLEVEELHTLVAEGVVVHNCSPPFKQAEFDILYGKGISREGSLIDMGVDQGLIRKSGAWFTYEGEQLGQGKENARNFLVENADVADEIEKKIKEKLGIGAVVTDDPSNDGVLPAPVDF
Description: Fluorescence Cell-Free Homogeneous Dose Retest to Identify Inhibitors of RecA-Intein Splicing Activity. [Related pubchem assays (depositor defined):AID2097, AID2223, AID489010, AID492950]. Type of assay: functional.

Four compounds from ChEMBL document CHEMBL1201862, “PubChem BioAssay data set” (2004) can be followed below.

As usually defined, the EC50 is the concentration needed to bring the measured effect to its halfway point. A word on the IC50: it is the point on the concentration scale where inhibition reaches its midpoint. As usually defined, the AC50 is the concentration at which the activity in the assay is half-maximal.

Active and inactive are the calls of the source. Cut-off read from the data, not from the text of the source, for most assays here: actives have a measured EC50 and inactives only a lower limit.

Sequence of Estrogen receptor beta (Q92731 whole entry): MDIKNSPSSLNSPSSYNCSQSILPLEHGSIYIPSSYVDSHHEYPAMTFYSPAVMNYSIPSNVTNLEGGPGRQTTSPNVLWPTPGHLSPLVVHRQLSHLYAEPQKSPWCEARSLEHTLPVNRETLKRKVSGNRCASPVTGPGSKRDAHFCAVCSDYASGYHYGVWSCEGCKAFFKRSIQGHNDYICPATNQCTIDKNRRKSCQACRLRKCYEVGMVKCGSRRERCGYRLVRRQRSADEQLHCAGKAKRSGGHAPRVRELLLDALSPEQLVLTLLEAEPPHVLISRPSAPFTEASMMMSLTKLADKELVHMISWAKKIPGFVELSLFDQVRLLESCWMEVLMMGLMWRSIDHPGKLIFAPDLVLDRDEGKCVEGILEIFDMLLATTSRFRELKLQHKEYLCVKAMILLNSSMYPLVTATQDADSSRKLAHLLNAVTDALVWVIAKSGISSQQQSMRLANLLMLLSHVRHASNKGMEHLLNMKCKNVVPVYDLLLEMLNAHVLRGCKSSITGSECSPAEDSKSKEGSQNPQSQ
Sequence of Induced myeloid leukemia cell differentiation protein Mcl-1 (Q07820 whole entry): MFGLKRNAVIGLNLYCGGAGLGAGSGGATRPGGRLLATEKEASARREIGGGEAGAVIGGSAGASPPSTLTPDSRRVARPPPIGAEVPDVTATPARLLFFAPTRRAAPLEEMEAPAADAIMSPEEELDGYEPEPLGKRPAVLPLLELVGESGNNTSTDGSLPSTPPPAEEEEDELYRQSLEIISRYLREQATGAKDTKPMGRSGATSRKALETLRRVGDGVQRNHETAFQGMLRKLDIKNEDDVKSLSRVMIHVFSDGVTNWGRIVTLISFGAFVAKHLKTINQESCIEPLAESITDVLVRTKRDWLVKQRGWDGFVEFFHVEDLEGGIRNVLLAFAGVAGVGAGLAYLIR

Consider `CCOC(=O)C1CCCN(Cc2ccc(-c3ccccc3)cc2)C1` (configuration not stated), for which the half-maximal effective concentration (EC50) was < 0.1 µM (active) in [1], > 60 µM (not active) in assay [2] and 0.429 µM (active) in the assay “cells”.
On to `Cc1cc(S(=O)(=O)N(Cc2ccc(F)cc2)CC2CCCO2)ccc1-n1cnnn1` (configuration not stated), for which, at Estrogen receptor beta, the IC50 is reported as > 50 µM (not active).
In the case of `O=C(CSc1nnc(-c2cccnc2)n1-c1ccccc1)Nc1ccc2c(c1)OCO2`, the IC50 on Estrogen receptor beta is > 50 µM (not active).
As for `CN1C=C/C(=C\c2cc[n+](C)c3ccccc23)c2ccccc21`, the EC50 is 9.17 µM (active) in [3]; 65.7 µM (active) in [4]; 8.89 µM (active) in assay [5]; 40 µM (inconclusive) in assay [6]; 6.93 µM (active) in assay [7]; < 0.1 µM (active) in assay [1]. Besides, the values for the EC50 (in [2]; at Protein RecA; in the assay “cells”) were > 60 µM (not active), 1.48 µM (active) and < 0.004 µM (active), respectively. Besides, the concentration for half-maximal inhibition (IC50) is 13 µM (active) in [8] and > 50 µM (not active) in assay [9]. Moreover, the AC50 in assay [10] is 121 µM (active).
